Columns and labels:
opioidergic receptors μ = biological target: T1, opioidergic receptors μ (Mus musculus, UniProt P42866); experiment: Radioreceptorial binding, receptors μ ([3H]-DAMGO displacement, brain membranes); parameters: species or system mice; conditions: 1 nM [3H]-DAMGO, 25° C.
T1 construct: from tissue; host or cells: CD1 mouse total brain (excluding the cerebellum) membranes

opioidergic receptors k = biological target: T2, opioidergic receptors k (Mus musculus, UniProt P33534); experiment: Radioreceptorial binding, receptors k (3H-U 69.593, brain membranes); parameters: species or system mice; conditions: 3H-U 69.593, 25° C.
T2 construct: the complete brain (excluding the cerebellum) was quickly dissected and kept in ice; from tissue; host or cells: CD1 mouse complete brain (excluding the cerebellum) homogenate/membranes
Source text: The affinity of the compounds synthesized in the preceding examples towards the opioidergic receptors μ, δ, k has been evaluated in vitro by radioreceptorial binding studies by using the method reported hereinunder.
The experimentation has been carried out according to the guide lines of the European Community for the animal experimentation (EEC n. 86/609), by using laboratory animals (male mices CD1 Charles River Italy, Calco, LC, Italy) lodged twenty in a cage, under standard stabulation conditions (temperature 22±2° C., relative humidity 60%, artificial light with a light/dark cycle of 12 hours). The food and water were at disposal ad libitum.
Receptors k: CD1 male mice weighing 20-25 g were used. The animals were sacrificed by cervical dislocation and the complete brain (excluding the cerebellum) was quickly dissected and kept in ice. The tissue was homogeneized in 40 volumes (w/v) of Tris-HCl buffer (50 mM, pH 7.4) by an Ultra-Turrax, then centrifuged for 20 minutes at 48,000×g in a centrifuge kept at 4° C. The resulting […] was suspended again in the same buffer and incubated at 37° C. for 30 minutes in a bath kept under oscillation. At the end of the incubation the suspension was centrifuged 48,000×g for 15 minutes and the pellets suspended again in 10 volumes of the Tris-HCl buffer. The binding experiment was carried out in a volume of 1 ml at the temperature of 25° C. with about 800-1000 μg of proteins for sample. The incubation was carried out for 60 minutes in the,presence of different concentrations of the ligand ^3H-U 69.593 (41.7 Ci/mmole). The non specific binding was determined in the presence of U69593 (10 μM). The incubation was stopped by quick filtering by means of a filtration instrument (Brandell®, Gaithersburg, Md., USA) by using GF/C filters (Whatman®).
The radioactivity was determined by a scintillator in liquid phase (Tricarb® 2100, Packard, Meridien, Ill., USA), by using three ml of scintillating fluid (Ultima Cold MV, Packard, Meridien, Ill., USA).
The protein determination was carried out by the Bradford method (1976) by using the protocol and the reactants supplied by Bio-Rad (Milano, Italy).
The affinity of the compounds towards the receptors μ, δ, κ has been expressed in Ki terms.

opioidergic receptors δ = biological target: T3, opioidergic receptors δ (Mus musculus, UniProt P32300); experiment: Radioreceptorial binding, receptors δ ([3H]-DPDPE displacement, brain membranes); parameters: species or system mice; conditions: 1 nM [3H]-DPDPE, 25° C.
T3 construct: from tissue; host or cells: CD1 mouse total brain (excluding the cerebellum) membranes
T3 sequence (P32300 whole entry): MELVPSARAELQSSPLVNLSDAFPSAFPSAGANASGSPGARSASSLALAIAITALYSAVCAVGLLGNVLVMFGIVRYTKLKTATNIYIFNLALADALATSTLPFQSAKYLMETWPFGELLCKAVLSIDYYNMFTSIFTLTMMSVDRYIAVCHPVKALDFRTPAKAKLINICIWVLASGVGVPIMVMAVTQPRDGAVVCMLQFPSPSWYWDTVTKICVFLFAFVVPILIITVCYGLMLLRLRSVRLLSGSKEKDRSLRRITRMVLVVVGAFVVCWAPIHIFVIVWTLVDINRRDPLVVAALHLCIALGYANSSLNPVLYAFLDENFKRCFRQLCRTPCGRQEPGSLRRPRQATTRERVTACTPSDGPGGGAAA

T1 sequence (P42866 whole entry): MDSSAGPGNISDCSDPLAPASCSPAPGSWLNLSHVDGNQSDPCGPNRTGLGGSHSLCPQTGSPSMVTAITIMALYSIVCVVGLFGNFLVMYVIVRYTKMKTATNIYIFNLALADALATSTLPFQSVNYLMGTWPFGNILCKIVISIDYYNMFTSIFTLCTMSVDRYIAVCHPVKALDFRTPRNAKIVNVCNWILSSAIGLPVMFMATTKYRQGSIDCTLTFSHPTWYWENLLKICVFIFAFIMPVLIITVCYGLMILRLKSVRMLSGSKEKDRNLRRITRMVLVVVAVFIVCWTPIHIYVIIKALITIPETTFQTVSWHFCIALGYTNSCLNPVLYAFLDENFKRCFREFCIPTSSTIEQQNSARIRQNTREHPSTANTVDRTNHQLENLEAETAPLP
T2 sequence (P33534 whole entry): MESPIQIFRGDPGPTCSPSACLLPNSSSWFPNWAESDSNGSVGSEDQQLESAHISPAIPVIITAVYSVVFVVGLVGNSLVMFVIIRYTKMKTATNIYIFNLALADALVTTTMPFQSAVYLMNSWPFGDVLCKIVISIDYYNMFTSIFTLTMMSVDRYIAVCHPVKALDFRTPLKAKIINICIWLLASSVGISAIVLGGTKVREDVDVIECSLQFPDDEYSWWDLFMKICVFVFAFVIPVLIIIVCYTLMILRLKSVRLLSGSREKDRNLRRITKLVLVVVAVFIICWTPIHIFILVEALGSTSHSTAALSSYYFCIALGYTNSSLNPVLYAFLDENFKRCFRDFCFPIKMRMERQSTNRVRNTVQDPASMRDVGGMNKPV

SMILES	Ki (opioidergic receptors μ) [nM]	Ki (opioidergic receptors k) [nM]	Ki (opioidergic receptors δ) [nM]	melting point [°C]
CCC(=O)N1C2CCC1CN(CC=C(c1ccccc1)c1ccccc1)CC2 (stereo not drawn) [I-Bd]	20.7 ± 2.33	1130 ± 186	333 ± 5	184 to 186
CCC(=O)N1C2CCCC1CN(CC=C(c1ccccc1)c1ccccc1)CC2 (stereo not drawn) [I-Dc]	23.3 ± 1.6	1930 ± 233	1690 ± 312	169 to 170
CCC(=O)N1C2CCC1CN(C/C=C(\C)c1ccccc1)CC2 (stereo not drawn) [I-Ba]	8.3 ± 1.2	900 ± 100	933 ± 33	228 to 230
CCC(=O)N1CCC2CCCC(C1)N2C/C=C(\C)c1ccccc1 (stereo not drawn) [I-Ca]	17 ± 1.3	410 ± 10	1670 ± 166	106 to 108
CCC(=O)N1C2CCC1CN(C/C=C(\C)c1ccc(Cl)c(Cl)c1)CC2 (stereo not drawn) [I-Bb]	4.1 ± 0.35	393 ± 23	850 ± 58	186 to 188
CCC(=O)N1CCC2CCC(C1)N2C/C=C(\C)c1ccccc1 (stereo not drawn) [I-Aa]	5.7 ± 1	55 ± 25	425 ± 25	230 to 232
CCC(=O)N1C2CCCC1CN(C/C=C(\C)c1ccccc1)CC2 (stereo not drawn) [I-Da]	40 ± 2.8	1470 ± 317	3870 ± 125	144 to 146
CCC(=O)N1C2CCCC1CN(C/C=C(\C)c1ccc(Cl)c(Cl)c1)CC2 (stereo not drawn) [I-Db]	17.5 ± 1.4	1170 ± 120	3250 ± 166	175 to 176
CCC(=O)N1CCC2CCCC(C1)N2C/C=C(\C)c1ccc(Cl)c(Cl)c1 (stereo not drawn) [I-Cb]	4.25 ± 0.3	425 ± 38	1120 ± 216	184 to 185
CCC(=O)N1CCC2CCC(C1)N2CC=C(c1ccccc1)c1ccccc1 (stereo not drawn) [I-Ad]	10.7 ± 0.3	103 ± 7	142 ± 25	176 to 177
CCC(=O)N1CCC2CCCC(C1)N2CC=C(c1ccccc1)c1ccccc1 (stereo not drawn) [I-Cc]	3.16 ± 0.6	40 ± 0.1	187 ± 29.7	137 to 139
CCC(=O)N1CCC2CCC(C1)N2C/C=C(\C)c1ccc(Cl)c(Cl)c1 (stereo not drawn) [I-Ab]	7 ± 1.5	100 ± 5	867 ± 44	188 to 189
